This is an account of results in the RepoRT retention time repository.

A short description of the data set: Waters ACQUITY UPLC BEH C18, 100 × 2.1 mm, 1.7 µm, 40 °C, 0.3 to 0.4 mL/min, estimated dead time 0.63 min; A: water + 0.1% formic acid; B: methanol + 0.1% formic acid; gradient (min/%B) 0/0.5 0.1/0.5 10/80 10.1/99.5 12/99.5. As to conditions: stereoisomer not certain.
On to `O=c1cc(-c2ccc(O)cc2)oc2c(C3OCC(O)C(O)C3O)c(O)c(C3OCC(O)C(O)C3O)c(O)c12` (stereo not given), for which the LC retention time is 3.89 min.
`C=CC12CN(C)C3C4COC(CC41)C1(C(=O)Nc4ccccc41)C32` (stereo not given): the LC retention time was 3.21 min.
In the case of `CCCCCC(=O)OC1C(CO)OC(OC2(CO)OC(CO)C(OC(C)=O)C2O)C(OC(=O)CCCCC)C1OC(=O)CCCCC` (stereo not given), the LC retention time was 9.97 min.
With `CCC12CCCN3CCc4c(n(c5ccccc45)C(=O)C1)C32` (stereo not given), the LC retention time is 4.65 min.
In the case of `O=C1C(O)Oc2ccccc2N1O` (stereo not given), the LC retention time was 1.83 min.
Under `CC(C)=CCc1cc(C2Oc3c(ccc(O)c3CC=C(C)C)C(=O)C2O)ccc1O` (stereo not given) stands 10.2 min; under `CC(O)(CC(=O)O)CC(=O)OCC1OC(Oc2c(-c3ccc(O)cc3)oc3cc(O)cc(O)c3c2=O)C(O)C(O)C1O` (stereo not given), 4.5 min; under `O=c1c(OC2OCC(O)C(O)C2O)c(-c2ccc(O)cc2)oc2cc(O)cc(O)c12` (stereo not given), 4.47 min.
Consider `CC(=O)OC1CC(COC2OC(CO)C(O)C(O)C2O)CNC12OC1CC3C4CCC5CC(OC6OC(CO)C(OC7OC(CO)C(OC8OC=C(O)C(O)C8O)C(O)C7OC7OC(CO)C(O)C(O)C7O)C(O)C6O)CCC5(C)C4CCC3(C)C1C2C` (stereo not given), for which the LC retention time was 3.88 min.
As for `CC(CCC1(O)OC2CC3C4CC=C5CC(O)CC(OC6OCC(O)C(OC7OCC(O)C(O)C7O)C6OC6OC(C)C(O)C(O)C6O)C5(C)C4CCC3(C)C2C1C)COC1OC(CO)C(O)C(O)C1O` (stereo not given), the LC retention time was 4.15 min.
`NCCc1c[nH]c2ccccc12`: the LC retention time is 1.79 min.
With `CCC(O)(C(=O)O)c1cc2n(c(=O)c1COC(C)=O)Cc1cc3ccccc3nc1-2` (stereo not given), the LC retention time was 5.4 min.
Take `O=C(O)CC(=O)OCC1OC(Oc2c(-c3cc(O)c(O)cc3O)oc3cc(O)cc(O)c3c2=O)C(O)C(O)C1O` (stereo not given): the LC retention time was 3.88 min.
Regarding `CC1OC(OC2C(OC3C(OC4CCC5(C)C(CCC6(C)C5CC=C5C7CC(C)(C)CC(OC(=O)CC(=O)O)C7(C)CCC56C)C4(C)CO)OC(C(=O)O)C(O)C3O)OC(CO)C(O)C2O)C(O)C(O)C1O` (stereo not given), the LC retention time was 6.73 min.
With `COc1c(CC=C(C)C)c(O)cc2c1C1Oc3cc(O)c(CC=C(C)C)cc3C1CO2` (stereo not given), the LC retention time is 9.29 min.
Consider `OCC1OC(Oc2cc3c(OC4OC(CO)C(O)C(O)C4O)cc(O)cc3[o+]c2-c2ccc(O)cc2)C(O)C(O)C1O` (stereo not given), for which the LC retention time was 2.71 min.
Under `CC(C)CC(N)C(=O)NC(C(=O)O)C(C)C` (stereo not given) stands 2.66 min; under `CN(C)Cc1c[nH]c2ccccc12`, 3.06 min; under `CCC12C=CCN3CCC4(C(=C(C(=O)OC)C1)Nc1ccccc14)C32` (stereo not given), 5.2 min.
`CC1OC(OC2C(Oc3cc(O)c4c(=O)cc(-c5ccc(O)cc5)oc4c3)OC(CO)C(O)C2O)C(O)C(O)C1O` (stereo not given): the LC retention time was 4.34 min.
With `COc1ccc(-c2coc3cc(OC4OC(COC(=O)CC(=O)O)C(O)C(O)C4O)cc(O)c3c2=O)cc1` (stereo not given), the LC retention time was 6.06 min.
On to `COc1c(CO)c(OC2OC(COC3OCC(O)C(O)C3O)C(O)C(O)C2O)cc2c1C(=O)c1ccccc1C2=O` (stereo not given), for which the LC retention time is 5.23 min.
In the case of `O=C1CC(c2ccccc2)Oc2ccccc21` (stereo not given), the LC retention time was 8.5 min.
For `CC=C1CN2C3CC1C1COC(c4c3[nH]c3cc(OC)ccc43)C12` (stereo not given), the LC retention time was 4.42 min.
On to `C=CC1C(OC2OC(CO)C(O)C(O)C2O)OC=C2C(=O)OCCC21O` (stereo not given), for which the LC retention time is 3.2 min.
Under `Cc1ccc2ccc3ccc(C)nc3c2n1` stands 3.47 min; under `CCN1CC2(COC)C(O)CC(OC)C34C5CC6(O)C(OC)C(O)C(OC(C)=O)(C5C6OC(=O)c5ccccc5)C(C(OC)C23)C14` (stereo not given), 5.97 min; under `COc1cc(-c2cc(=O)c3c(O)cc(OC4OC(COC(=O)CC(=O)O)C(O)C(O)C4O)cc3o2)cc(OC)c1O` (stereo not given), 4.91 min.
The value for `CC1OC(OC2C(OC3C(OC4CCC5(C)C(CCC6(C)C5CC=C5C7CC(C)(C)CC(OC8OC(C)C(O)C(O)C8O)C7(C)CCC56C)C4(C)CO)OC(C(=O)O)C(O)C3O)OCC(O)C2O)C(O)C(O)C1O` (stereo not given) was 5.86 min.
For `O=C(C=Cc1ccc(O)c(O)c1)NCCCCN(CCCNC(=O)C=Cc1ccc(O)cc1)C(=O)C=Cc1ccc(O)c(O)c1`, the LC retention time was 5 min.
`O=C(Cc1c[nH]c2ccccc12)NC(Cc1c[nH]c2ccccc12)C(=O)O` (stereo not given): the LC retention time was 6.19 min.
As for `CC(C)=CCCC(C)(OC1OC(COC2OC(CO)C(O)C2O)C(O)C(O)C1O)C1CCC2(C)C1C(O)CC1C3(C)CCC(OC4OC(CO)C(O)C(O)C4OC4OC(CO)C(O)C(O)C4O)C(C)(C)C3CCC12C` (stereo not given), the LC retention time is 6.01 min.
On to `CCCCCCCCCCCCCCCC(=O)OCC(O)COP(=O)([O-])OCC[N+](C)(C)C` (stereo not given), for which the LC retention time is 9.91 min.
In the case of `CC1C(=O)OC2C(O)C34C5CC(C(C)(C)C)C36C(OC(=O)C6O)OC4(C(=O)O5)C12O` (stereo not given), the LC retention time is 5.36 min.
As for `OCC=Cc1ccc(O)cc1`, the LC retention time is 3.76 min.
In the case of `CC(CCC1(O)OC2CC3C4CC=C5CC(O)CC(OC6OCC(O)C(O)C6OC6OC(C)C(O)C(O)C6O)C5(C)C4CCC3(C)C2C1C)COC1OC(CO)C(O)C(O)C1O` (stereo not given), the LC retention time is 4.48 min.
Under `CS(=O)CCCCC(=NOS(=O)(=O)O)SC1OC(CO)C(O)C(O)C1O` (stereo not given) stands 1.74 min; under `C=CC(O)CC(=NOS(=O)(=O)O)SC1OC(CO)C(O)C(O)C1O` (stereo not given), 1.77 min.
Take `COc1ccc(-c2cc(=O)c3c(O)cc(OC4OC(CO)C(O)C(O)C4OC4OC(C)C(O)C(O)C4O)cc3o2)cc1` (stereo not given): the LC retention time is 5.26 min.
Take `CC1CCC2(C(=O)OC3OC(COC4OC(CO)C(OC5OC(C)C(O)C(O)C5O)C(O)C4O)C(O)C(O)C3O)CCC3(C)C(=CCC4C5(C)CC(O)C(O)C(C)(CO)C5CCC43C)C2C1C` (stereo not given): the LC retention time is 5.21 min.
The value for `CCCCCC=CCC=CCC=CCC=CCCCC(=O)O` was 7.39 min; that for `COc1ccc(CCNC(=O)C=Cc2ccc(O)c(OC)c2)cc1O` was 5.29 min; that for `c1ccc2c(c1)[nH]c1cnccc12` was 3.48 min.
Turning to `O=C1CC(c2ccc(O)c(O)c2)Oc2c1ccc(OC1OC(CO)C(O)C(O)C1O)c2O` (stereo not given), the LC retention time was 3.47 min.
On to `CC(=O)OC1CC(COC2OC(CO)C(O)C(O)C2O)CNC12OC1CC3C4CCC5CC(OC6OC(CO)C(OC7OC(CO)C(OC8OCC(O)C(O)C8O)C(O)C7OC7OC(CO)C(O)C(O)C7O)C(O)C6O)CCC5(C)C4CCC3(C)C1C2C` (stereo not given), for which the LC retention time is 3.59 min.
On to `O=C1CC(c2ccc(O)c(O)c2)Oc2cc(O)cc(O)c21` (stereo not given), for which the LC retention time is 5.35 min.
Take `CCc1nccc2c1[nH]c1ccccc12`: the LC retention time was 4.01 min.
The value for `C=CC1C(OC2OC(CO)C(O)C(O)C2O)OC=C(C(=O)O)C1Cc1nccc2c1[nH]c1ccc(O)cc12` (stereo not given) was 3.69 min; that for `CC(C)=CCCC(C)(OC1OC(CO)C(O)C(O)C1O)C1CCC2(C)C1C(O)CC1C3(C)CCC(O)C(C)(C)C3C(O)CC12C` (stereo not given) was 6.59 min.
Consider `C=CC1CN2CCc3c([nH]c4ccccc34)C2CC1C(=COC)C(=O)OC` (stereo not given), for which the LC retention time was 5.68 min.
As to `O=c1cc(-c2ccc(O)cc2)oc2cc(OC3OC(CO)C(O)C(O)C3O)cc(O)c12` (stereo not given), the LC retention time was 4.18 min.
For the molecule `CC=CSSC=CC`, the LC retention time is 6.41 min.
For `COc1ccc(C2OCC3C(c4ccc(OC5OC(CO)C(O)C(O)C5O)c(OC)c4)OCC23)cc1OC` (stereo not given), the LC retention time is 5.13 min.
With `COc1cc(-c2oc3cc(OC4OC(CO)C(O)C(O)C4O)cc(O)c3c(=O)c2OC2OC(CO)C(O)C(O)C2O)cc(OC2OC(CO)C(O)C(O)C2O)c1O` (stereo not given), the LC retention time is 2.8 min.
`CC(C)=CCc1cc(C2COc3cc(O)c(CC=C(C)C)c(O)c3C2=O)ccc1O` (stereo not given): the LC retention time is 9.45 min.
With `CC(CCC1(O)OC2CC3C4CC=C5CC(O)CC(OC6OC(CO)C(O)C(O)C6O)C5(C)C4CCC3(C)C2C1C)COC1OC(CO)C(O)C(O)C1OC1OC(C)C(O)C(O)C1O` (stereo not given), the LC retention time was 4.34 min.
In the case of `CC=CS(=O)CC(NC=C1OCC(O)C(O)C1O)C(=O)O` (stereo not given), the LC retention time is 1.86 min.
As for `C=CC1CN2CCC1CC2C(O)c1ccnc2ccc(OC)cc12` (stereo not given), the LC retention time is 3.31 min.
For `CCCCCCCCCCCCCCC(O)C(O)C(N)CO` (stereo not given), the LC retention time is 7.82 min.
Under `CC1OC(OC2C(OC3CCC4(C)C(=CCC5C4CCC4(C)C5CC5OC6(CCC(COC(=O)CC(C)(O)CC(=O)O)CO6)C(C)C54)C3)OC(CO)C(O)C2O)C(O)C(O)C1O` (stereo not given) stands 7.38 min.
